Measured values as given in patent US11441142B2, “FLS variant having increased activity” (KONKUK UNIVERSITY INDUSTRIAL COOPERATION CORPORATION, priority 2017, dated 2022).
Where a chain is given by its changes, count along the chain named.

Tests used:
Assay type in all cases: biochemical
[1] = biological target: T1, Pseudomonas fluorescens FLS (formolase), wild type, SEQ ID NO: 8 (Pseudomonas fluorescens, UniProt Q9F4L3, A28I/A394G/A480W/G419N/L90T/R188H/W89R); assay: kinetic parameters of FLS; settings: substrate acetaldehyde, coenzyme TPP (0.1 mM), pH 8.0, room temperature
T1 sequence (Q9F4L3 1-563 A28I/A394G/A480W/G419N/L90T/R188H/W89R): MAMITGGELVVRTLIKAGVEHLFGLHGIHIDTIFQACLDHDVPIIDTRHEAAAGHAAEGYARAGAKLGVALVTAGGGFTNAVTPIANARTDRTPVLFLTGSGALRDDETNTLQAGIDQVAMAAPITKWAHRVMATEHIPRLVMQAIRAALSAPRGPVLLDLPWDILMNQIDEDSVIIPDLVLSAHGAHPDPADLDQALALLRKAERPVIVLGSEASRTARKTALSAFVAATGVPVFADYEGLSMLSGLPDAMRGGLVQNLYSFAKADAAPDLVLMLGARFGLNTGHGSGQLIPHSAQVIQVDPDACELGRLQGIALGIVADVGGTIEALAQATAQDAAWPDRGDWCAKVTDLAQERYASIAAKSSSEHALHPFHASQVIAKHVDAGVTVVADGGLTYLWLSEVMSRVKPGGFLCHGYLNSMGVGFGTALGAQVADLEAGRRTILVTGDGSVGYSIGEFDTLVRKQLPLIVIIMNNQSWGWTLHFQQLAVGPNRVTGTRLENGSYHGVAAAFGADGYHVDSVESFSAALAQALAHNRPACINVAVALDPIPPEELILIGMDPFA
Procedure: (§1) The kinetic parameters of EtDH and EtDH:D46G were identified by reacting the EtDH and EtDH:D46G with a reaction mixture containing 100 mM glycine-NaOH buffer solution (pH 9.5), 5 mM Mg^2+, 3 mM NAD^+/NADP^+ and 0.5 to 100 mM ethanol at room temperature. The kinetic parameters of FLS and variants thereof were identified by reacting FLS and variants thereof with a reaction mixture containing 100 mM phosphate buffer solution (pH 8.0), 1 mM Mg^+, 0.1 mM TPP and 0.5 to 20 mM acetaldehyde at room temperature. The kinetic parameters of BDH and BDH:S199A were identified by reacting BDH and BDH:S199A with a reaction mixture containing 50 mM Tris-HCl buffer solution (pH 7.5), 0.2 mM NADPH, 1 mM DTT; 0.5 to 100 mM acetoin or 0.5 to 10 mM butanone at room temperature. The Km and kcat values were identified using nonlinear regression fitting of the Michaelis-Menten equation and the fitting were repeated three times.
(§2) In order to compare the catalytic efficiencies via measurement of kinetic parameters of cascade enzymes and variants thereof in accordance with the present disclosure, the following experiment was performed. Specifically, the kinetic parameters of EtDH and EtDH:D46G were identified by reacting EtDH and EtDH:D46G with a reaction mixture containing 100 mM glycine-NaOH buffer solution (pH 9.5), 5 mM Mg^2+, 3 mM NAD^+/NADP^+ and 0.5 to 100 mM ethanol at room temperature. […]

[2] = biological target: T2, Pseudomonas fluorescens FLS (formolase) variant FLS:L482S, SEQ ID NO: 10 (Pseudomonas fluorescens, UniProt Q9F4L3, A28I/A394G/A480W/G419N/L482S/L90T/R188H/W89R); assay: kinetic parameters of FLS:L482S; settings: substrate acetaldehyde
T2 sequence (Q9F4L3 1-563 A28I/A394G/A480W/G419N/L482S/L90T/R188H/W89R): T1 sequence (Q9F4L3 1-563 A28I/A394G/A480W/G419N/L90T/R188H/W89R) with L482S
Procedure: as §1, §2

[3] = biological target: T3, Pseudomonas fluorescens FLS (formolase) variant FLS:L482R, SEQ ID NO: 11 (Pseudomonas fluorescens, UniProt Q9F4L3, A28I/A394G/A480W/G419N/L482R/L90T/R188H/W89R); assay: kinetic parameters of FLS:L482R; settings: substrate acetaldehyde
T3 sequence (Q9F4L3 1-563 A28I/A394G/A480W/G419N/L482R/L90T/R188H/W89R): T1 sequence (Q9F4L3 1-563 A28I/A394G/A480W/G419N/L90T/R188H/W89R) with L482R
Procedure: as §1, §2

[4] = biological target: T4, Pseudomonas fluorescens FLS (formolase) variant FLS:L482E, SEQ ID NO: 12 (Pseudomonas fluorescens, UniProt Q9F4L3, A28I/A394G/A480W/G419N/L482E/L90T/R188H/W89R); assay: kinetic parameters of FLS:L482E; settings: substrate acetaldehyde, coenzyme TPP (0.1 mM), pH 8.0, room temperature
T4 sequence (Q9F4L3 1-563 A28I/A394G/A480W/G419N/L482E/L90T/R188H/W89R): T1 sequence (Q9F4L3 1-563 A28I/A394G/A480W/G419N/L90T/R188H/W89R) with L482E
Procedure: as §1, §2

[5] = system: Pseudomonas fluorescens FLS (formolase) variant FLS:L482E, SEQ ID NO: 12; assay: kinetic parameters of FLS:L482E; settings: substrate acetaldehyde, coenzyme TPP
Procedure: as §1, §2

[6] = coenzyme TPP (0.1 mM), pH 8.0, room temperature

In the case of `CC=O` [Acetaldehyde], the kcat/Km [1] is reported as 7.69 M⁻¹ s⁻¹, the “increase of catalyst efficiency (kcat/Km) compared to wild-type FLS” value (shortened to “increase of catalyst efficiency”) ([2]; coenzyme TPP) is reported as 72.95% and the kcat/Km [2, 6] is reported as 13.3 M⁻¹ s⁻¹. For the same compound, the “increase of catalyst efficiency” value ([3]; coenzyme TPP) was 37.84%, the kcat/Km [3, 6] was 10.6 M⁻¹ s⁻¹ and the kcat/Km [4] was 9.66 M⁻¹ s⁻¹. The “increase of catalyst efficiency” value [5] was 25.62%.
